Test results published in patent US9732063B2, “Kinase inhibitors” (RESPIVERT LIMITED, priority 2012, dated 2017).

How the values were obtained:
PBMCs [1] = assay: LPS-induced TNFα/IL-8 release in PBMC cells; format: cell-based; settings: Homo sapiens, read-out: IC50 Values for Inhibition of Cytokine Release PBMCs IL-8
Method: Peripheral blood mononuclear cells (PBMCs) from healthy subjects are separated from whole blood using a density gradient (Lymphoprep, Axis-Shield Healthcare). The PBMCs are seeded in 96 well plates and treated with compounds at the desired concentration for 2 hours before addition of 1 ng/mL LPS (Escherichia Coli O111:B4 from Sigma Aldrich) for 24 hours under normal tissue culture conditions (37° C., 5% CO2). The supernatant is harvested for determination of IL-8 and TN Fa concentrations by sandwich ELISA (Duo-set, R&D systems) and read on the fluorescence microplate reader (Varioskan® Flash, ThermoFisher Scientific).

GSK3α = GSK3α (Homo sapiens (Human), UniProt P49840); assay: GSK 3α enzyme inhibition (Z-LYTE FRET, Method 2); format: biochemical
GSK3α, sequence (P49840 whole entry): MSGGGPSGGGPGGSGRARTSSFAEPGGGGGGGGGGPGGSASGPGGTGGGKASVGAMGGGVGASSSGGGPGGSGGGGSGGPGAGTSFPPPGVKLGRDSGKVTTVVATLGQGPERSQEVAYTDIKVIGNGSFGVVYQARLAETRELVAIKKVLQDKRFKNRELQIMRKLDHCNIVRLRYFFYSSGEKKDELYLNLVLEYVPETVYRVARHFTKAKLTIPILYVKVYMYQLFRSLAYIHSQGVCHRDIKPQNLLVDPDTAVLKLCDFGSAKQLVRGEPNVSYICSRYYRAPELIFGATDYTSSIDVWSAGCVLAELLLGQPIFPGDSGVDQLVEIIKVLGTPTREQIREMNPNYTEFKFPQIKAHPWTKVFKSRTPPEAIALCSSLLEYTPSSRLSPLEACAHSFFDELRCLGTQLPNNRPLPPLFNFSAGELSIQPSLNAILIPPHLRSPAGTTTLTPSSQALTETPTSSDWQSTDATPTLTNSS
Method: The enzyme inhibitory activities of compounds disclosed herein are determined by FRET using synthetic peptides labelled with both donor and acceptor fluorophores (Z-LYTE, Invitrogen Ltd., Paisley, UK).
The inhibitory activities of compounds of the invention against the GSK 3α enzyme isoform (Invitrogen), are evaluated by determining the level of activation/phosphorylation of the target peptide. The GSK3-α protein (500 ng/mL, 2.5 μL) is mixed with the test compound (2.5 μL at either 4 μg/mL, 0.4 μg/mL, 0.04 μg/mL, or 0.004 μg/mL) for 2 hr at RT. The FRET peptide (8 μM, 2.5 μL), which is a phosphorylation target for GSK3α, and ATP (40 μM, 2.5 μL) are then added to the enzyme/compound mixture and the resulting mixture incubated for 1 hr. Development reagent (protease, 5 μL) is added for 1 hr prior to detection in a fluorescence microplate reader (Varioskan® Flash, ThermoFisher Scientific).
In all cases, the site-specific protease cleaves non-phosphorylated peptide only and eliminates the FRET signal. Phosphorylation levels of each reaction are calculated using the ratio of coumarin emission (donor) over fluorescein emission (acceptor), for which high ratios indicate high phosphorylation and low ratios indicate low phosphorylation levels.

PBMCs [2] = assay: IL-2 and IFN gamma release in CD3/CD28 stimulated PBMC cells; format: cell-based; settings: Homo sapiens
Method: PBMCs from healthy subjects are separated from whole blood using a density gradient (Lymphoprep, Axis-Shield Healthcare). Cells are added to a 96 well plate pre-coated with a mixture of CD3/CD38 monoclonal antibodies (0.3 μg/mL eBioscience and 3 μg/mL BD Pharmingen respectively). Compound at the desired concentration is then added to the wells and the plate left for 3 days under normal tissue culture conditions. Supernatants are harvested and IL-2 and IFN gamma release determined by Sandwich ELISA (Duo-set, R&D System). The IC50 is determined from the dose response curve.

| SMILES | IC50 (PBMCs [1]) [nM] | IC50 (GSK3α) [nM] | IC50 (PBMCs [1]; LPS-stimulated PBMCs) [nM] | IC50 (PBMCs [2]; read-out: IC50 Values for Inhibition of Cytokine Release PBMCs IFNγ) [nM] | IC50 (PBMCs [2]; read-out: IC50 Values for Inhibition of Cytokine Release PBMCs IL-2) [nM] |
| --- | --- | --- | --- | --- | --- |
| COCCOCCOCCOc1cccc(Nc2nccc(Oc3ccc(NC(=O)Nc4cc(C(C)(C)C)nn4-c4ccc(OC)nc4)c4ccccc34)n2)c1 [Example 4, 1-(3-(tert-Butyl)-1-(6-methoxypyridin-3-yl)-1H-pyrazol-5-yl)-3-(4-((2-((3-(2-(2-(2-methoxy-ethoxy)ethoxy)ethoxy)phenyl)amino)pyrimidin-4-yl)oxy)naphthalen-1-yl)urea] | 1.7 | – | – | – | – |
| COc1ccc(-n2nc(C(C)(C)C)cc2NC(=O)Nc2ccc(Oc3ccnc(Nc4cccc(OC(N)=O)c4)n3)c3ccccc23)cn1 [Example 5, 3-(4-((4-(3-(3-(tert-Butyl)-1-(6-methoxypyridin-3-yl)-1H-pyrazol-5-yl)ureido)naphthalen-1-yl)oxy)pyrimidin-2-yl)amino)phenyl carbamate] | 1.9 | 306 | – | – | – |
| COc1ccc(-n2nc(C(C)(C)C)cc2NC(=O)Nc2ccc(Oc3ccnc(Nc4cccc(SCCO)c4)n3)c3ccccc23)cn1 [Example 6] | 1.6 | 501 | – | – | – |
| COc1ccc(-n2nc(C(C)(C)C)cc2NC(=O)Nc2ccc(Oc3ccnc(Nc4cccc([S+]([O-])C5CC5)c4)n3)c3ccccc23)cn1 (stereo not shown) [Example 7, 1-(3-(tert-Butyl)-1-(6-methoxypyridin-3-yl)-1H-pyrazol-5-yl)-3-(4-((2-((3-(cyclopropyl-sulfinyl)phenyl)amino)pyrimidin-4-yl)oxy)naphthalen-1-yl)urea] | 0.9 | 125 | – | – | – |
| COc1ccc(-n2nc(C(C)(C)C)cc2NC(=O)Nc2ccc(Oc3ccnc(Nc4cccc(S(=O)(=O)C5CC5)c4)n3)c3ccccc23)cn1 [Example 8, 1-(3-(tert-Butyl)-1-(6-methoxypyridin-3-yl)-1H-pyrazol-5-yl)-3-(4-((2-((3-(cyclopropyl-sulfonyl)phenyl)amino)pyrimidin-4-yl)oxy)naphthalen-1-yl)urea] | 1 | 258 | – | – | – |
| COc1cc(N=S(C)(C)=O)cc(Nc2nccc(Oc3ccc(NC(=O)Nc4cc(C(C)C)nn4-c4ccc(C)cc4)c4ccccc34)n2)c1 [Example 16, 3-(5-Methoxy((4-((4-(3-(3-isopropyl-1-(p-tolyl)-1H-pyrazol-5-yl)ureido)naphthalen-1-yl)-oxy)pyrimidin-2-yl)amino))phenyl-S,S-dimethyl-N-phenyl sulfoximine] | – | – | 1.7 | – | – |
| Cc1ccc(-n2nc(C(C)C)cc2NC(=O)Nc2ccc(Oc3ccnc(Nc4cccc(S(=O)(=O)C5CC5)c4)n3)c(Cl)c2Cl)cc1 [Example 24, 1-(2,3-Dichloro-4-((2-((3-(cyclopropylsulfonyl)phenyl)amino)pyrimidin-4-yl)oxy)phenyl)-3-(3-isopropyl-1-(p-tolyl)-1H-pyrazol-5-yl)urea] | 3.8 | 117 | – | – | – |
| COc1cc(Nc2nccc(Oc3ccc(NC(=O)Nc4cc(C(C)C)nn4-c4ccc(C)cc4)c(F)c3F)n2)cc(OCCN2CCOCC2)c1 [Example 25, 1-(2,3-Difluoro-4-((2-((3-methoxy-5-(2-morpholinoethoxy)phenyl)amino)pyrimidin-4-yl)oxy)phenyl)-3-(3-isopropyl-1-(p-tolyl)-1H-pyrazol-5-yl)urea] | 2 | 804 | – | – | – |
| COc1cc(N=S(C)(C)=O)cc(Nc2nccc(Oc3ccc(NC(=O)Nc4cc(C(C)C)nn4-c4ccc(C)cc4)c(Cl)c3Cl)n2)c1 [Example 26] | 3.9 | 426 | – | – | – |
| COCCOCCOCCOc1cc(Nc2nccc(Oc3ccc(NC(=O)Nc4cc(C(C)C)nn4-c4ccc(C)cc4)c4ncccc34)n2)cc(OC)c1 [Example 27, 1-(3-Isopropyl-1-(P-tolyl)-1H-pyrazol-5-yl)-3-(5-((2-((3-methoxy-5-(2-(2-(2-methoxy-ethoxy)ethoxy)ethoxy)phenyl)amino)pyrimidin-4-yl)oxy)quinolin-8-yl)urea] | 24.8 | > 10000 | – | – | – |
| COc1cc(Nc2nccc(Oc3ccc(NC(=O)Nc4cc(C(C)C)nn4-c4ccc(C)cc4)c4ncccc34)n2)cc(OCCN2CCOCC2)c1 [Example 28, 1-(3-Isopropyl-1-(P-tolyl)-1H-pyrazol-5-yl)-3-(5-((2-((3-methoxy-5-(2-morpholinoethoxy)-phenyl)amino)pyrimidin-4-yl)oxy)quinolin-8-yl)urea] | 24 | > 10000 | – | – | – |
| COCCOCCOCCSc1cc(Nc2nccc(Oc3ccc(NC(=O)Nc4cc(C(C)C)nn4-c4ccc(C)cc4)c4ccccc34)n2)cc(OC)c1 [Example 31, 1-(3-Isopropyl-1-(P-tolyl)-1H-pyrazol-5-yl)-3-(4-((2-((3-methoxy-5-((2-(2-(2-methoxy-ethoxy)ethoxy)ethyl)thio)phenyl)amino)pyrimidin-4-yl)oxy)naphthalen-1-yl)urea] | 4.4 | > 10000 | – | – | – |
| COCCOCCOCCOc1cc(Nc2nccc(Oc3ccc(NC(=O)Nc4cc(C(C)C)nn4-c4ccc(C)cc4)c4ccccc34)n2)cc(OC(F)(F)F)c1 [Example 33, 1-(3-Isopropyl-1-(p-tolyl)-1H-pyrazol-5-yl)-3-(4-((2-((3-(2-(2-(2-methoxyethoxyl)ethoxy)-ethoxy)-5-(trifluoromethoxy)phenyl)amino)pyrimidin-4-yl)oxy)naphthalen-1-yl)urea] | 8.7 | > 10000 | – | – | – |
| COCCOCCOCCOc1cc(Nc2nccc(Oc3ccc(NC(=O)Nc4cc(C(C)C)nn4-c4ccc(C)cc4)c4ccccc34)n2)cc(C(F)(F)F)c1 [Example 34] | 12.2 | > 10000 | – | – | – |
| COCCOCCOCCS(=O)(=O)c1cc(Nc2nccc(Oc3ccc(NC(=O)Nc4cc(C(C)C)nn4-c4ccc(C)cc4)c4ccccc34)n2)cc(OC)c1 [Example 36, 1-(3-Isopropyl-1-(p-tolyl)-1H-pyrazol-5-yl)-3-(4-((2-((3-methoxy-5-((2-(2-(2-methoxy-ethoxy)ethoxy)ethyl)sulfonyl)phenyl)amino)pyrimidin-4-yl)oxy)naphthalen-1-yl)urea] | 2.5 | 596 | – | – | – |
| Cc1ccc(-n2nc(C(C)(C)C)cc2NC(=O)Nc2ccc(Oc3ccnc(Nc4cccc(S(=O)(=O)C5CC5)c4)n3)c3ccccc23)cc1 [Example 46, 1-(3-(tert-Butyl)-1-(p-tolyl)-1H-pyrazol-5-yl)-3-(4-((2-((3-(cyclopropylsulfonyl)phenyl)-amino)pyrimidin-4-yl)oxy)naphthalen-1-yl)urea] | 2.7 | 172 | – | – | – |
| COCCOCCOCCOc1cc(F)cc(Nc2nccc(Oc3ccc(NC(=O)Nc4cc(C(C)(C)C)nn4-c4ccc(C)cc4)c4ccccc34)n2)c1 [Example 50, 1-(3-(tert-Butyl)-1-(p-tolyl)-1H-pyrazol-5-yl)-3-(4-((2-((3-fluoro-5-(2-(2-(2-methoxyethoxy)-ethoxy)ethoxy)phenyl)amino)pyrimidin-4-yl)oxy)naphthalen-1-yl)urea] | 8.6 | 3030 | – | – | – |
| COc1cc(Nc2nccc(Oc3ccc(NC(=O)Nc4cc(C(C)(C)C)nn4-c4ccc(C)cc4)c4ccccc34)n2)cc(OCCOCCOCCN2CCOCC2)c1 [Example 58, 1-(3-(tert-Butyl)-1-(p-tolyl)-1H-pyrazol-5-yl)-3-(4-((2-((3-methoxy-5-(2-(2-(2-morpholinoethoxy)ethoxy)ethoxy)phenyl)amino)pyrimidin-4-yl)oxy)naphthalen-1-yl)urea] | – | – | – | 1.3 | 39.6 |
| COc1cc(Nc2nccc(Oc3ccc(NC(=O)Nc4cc(C(C)(C)C)nn4-c4ccc(C)cc4)c(Cl)c3Cl)n2)cc(OCCN2CCOCC2)c1 [Example 59, 1-(3-(tert-Butyl)-1-(p-tolyl)-1H-pyrazol-5-yl)-3-(2,3-dichloro-4-((2-((3-methoxy-5-(2-morpholinoethoxy)phenyl)amino)pyrimidin-4-yl)oxy)phenyl)urea] | 4.2 | – | – | – | – |
| COCCOCCOCCN(C)c1cc(Nc2nccc(Oc3ccc(NC(=O)Nc4cc(C(C)(C)C)nn4-c4ccc(C)cc4)c4ccccc34)n2)cc(OC)c1 [Example 67, 1-(3-(tert-Butyl)-1-(p-tolyl)-1H-pyrazol-5-yl)-3-(4-((2-((3-methoxy-5-((2-(2-(2-methoxyethoxy)ethoxy)ethyl)(methyl)amino)phenyl)amino)pyrimidin-4-yl)oxy)naphthalen-1-yl)urea] | 3.5 | – | – | – | – |
| COc1cc(Nc2nccc(Oc3ccc(NC(=O)Nc4cc(C(C)(C)C)nn4-c4ccc(C)cc4)c(Cl)c3Cl)n2)cc(S(=O)(=O)C2CC2)c1 [Example 68, 1-(3-(tert-Butyl)-1-(p-tolyl)-1H-pyrazol-5-yl)-3-(2,3-dichloro-4-((2-((3-(cyclopropylsulfonyl)-5-methoxyphenyl)amino)pyrimidin-4-yl)oxy)phenyl)urea] | 5.2 | – | – | – | – |
